# Results taken from patent publication US20160066572A1, “METHOD OF SANITIZING EDIBLE SEEDS, PARTICULARLY MUCILAGE PRODUCING SEEDS” (AGRI-NEO INC., priority 2013, published 2016).
# Key:
# [1] = system: Total count Aerobic bacteria; assay: Total aerobic count on seeds, grains and spices sprayed with sanitizing solutions (Example 1); type: cell-based
# Experimental: (§1) Seeds were mechanically cleaned and spread in stainless steel containers. Each 100 grams seeds were sprayed with 4 ml total solutions descried above via conventional trigger vaporizer. This solution is equivalent to 40 L disinfecting solution total sprayed on 1-tonne seeds. Seeds, grains and spices were selected to represent all families and types of seeds, grains and spices. Another criterium was to select seeds and grains contaminated with a high count of total aerobic bacteria, yeast, mold, E. coli, Salmonella sp. and other pathogenic microorganisms.
# (§2) Seeds, grains and spices treated were: • Whole dried pea, • Split pea dried, • Pea fiber, • Vanilla, • Chia, • Sprouted flax and chia, • Flax, • Hemp, and • Black pepper seeds
# chia and flax seeds = assay: Mucilage release from mucilaginous seeds after treatment; conditions: alcohol in the aqueous sanitizing composition
# Experimental: A minimum of 4 ml of the treatment solution was sprayed, using a handheld atomizing sprayer while mixing, on 100 gram samples of chia and flax seeds. The samples were allowed to air dry and checked for mucilage.
# A minimum of 4 ml of the treatment solution was sprayed, using a handheld atomizing sprayer while mixing, on 100-gram samples of chia and flax seeds. The samples were allowed to air dry and checked for mucilage.
# yeast and mold (Y&M) = assay: Y&M count on seeds, grains and spices sprayed with sanitizing solutions (Example 1); type: cell-based; conditions: 40 L/tonne; for Y&M, Av: average; for Y&M, n1: replicate n1; for Y&M, n2: replicate n2
# Experimental: as §1, §2
# [2] = whole dried pea, 40 L per 1 tonne
smiles,measurement,setting,value
CC(=O)OO [Peracetic acid],bactericidal effect (conclusion),"[1]; black pepper, 40 L per 1 tonne",strong bactericidal agent
same,bactericidal effect (conclusion),"[1]; hemp, 40 L per 1 tonne",strong bactericidal agent
same,bactericidal effect (conclusion),"[1]; pea fiber, 40 L per 1 tonne",strong bactericidal agent
same,bactericidal effect (conclusion),"[1]; split pea, 40 L per 1 tonne",strong bactericidal agent
same,bactericidal effect (conclusion),"[1]; vanilla, 40 L per 1 tonne",strong bactericidal agent
same,bactericidal effect (conclusion),[1]; [2],strong bactericidal agent
CCO [ethanol],effective amount (concentration) required to suppress mucilage release,chia and flax seeds,about 15 % by volume
"CCO [2- Alcohol - ethanol, ethanol]",bactericidal effect (conclusion),"[1]; black pepper, 40 L per 1 tonne",not a strong bactericidal agent
same,"Total count Aerobic CFU/g bacteria, Av","[1]; black pepper, 40 L/tonne, average",Av = 1 million
same,"Total count Aerobic CFU/g bacteria, Av","[1]; chia seeds, 40 L/tonne, average","Av = 510,000 CFU/g"
same,"Total count Aerobic CFU/g bacteria, n1","[1]; chia seeds, 40 L/tonne, replicate n1","n1 = 520,000 CFU/g"
same,"Total count Aerobic CFU/g bacteria, n2","[1]; chia seeds, 40 L/tonne, replicate n2","n2 = 500,000 CFU/g"
same,"Total count Aerobic CFU/g bacteria, Av","[1]; flax seeds, 40 L/tonne, average",Av = 2 millions
same,"Total count Aerobic CFU/g bacteria, n1","[1]; flax seeds, 40 L/tonne, replicate n1",n1 = 1.8 millions
same,"Total count Aerobic CFU/g bacteria, n2","[1]; flax seeds, 40 L/tonne, replicate n2",n2 = 2.2 millions
same,bactericidal effect (conclusion),"[1]; hemp, 40 L per 1 tonne",not a strong bactericidal agent
same,"Total count Aerobic CFU/g bacteria, Av","[1]; hemp, 40 L/tonne, average",Av = 1 million
same,"Total count Aerobic CFU/g bacteria, n1","[1]; hemp, 40 L/tonne, replicate n1","n1 = 800,000 CFU/g"
same,"Total count Aerobic CFU/g bacteria, n2","[1]; hemp, 40 L/tonne, replicate n2",n2 = 1.2 millions
same,bactericidal effect (conclusion),"[1]; pea fiber, 40 L per 1 tonne",not a strong bactericidal agent
same,"Total count Aerobic CFU/g bacteria, Av","[1]; pea fiber, 40 L/tonne, average","Av = 700,000 CFU/g"
same,"Total count Aerobic CFU/g bacteria, n1","[1]; pea fiber, 40 L/tonne, replicate n1","n1 = 500,000 CFU/g"
same,"Total count Aerobic CFU/g bacteria, n2","[1]; pea fiber, 40 L/tonne, replicate n2","n2 = 900,000 CFU/g"
same,bactericidal effect (conclusion),"[1]; split pea, 40 L per 1 tonne",not a strong bactericidal agent
same,bactericidal effect (conclusion),[1]; sprouted flax and chia,bactericidal agent but not very strong
same,"Total count Aerobic CFU/g bacteria, Av","[1]; sprouted flax and chia, 40 L/tonne, average","Av = 600,000 CFU/g"
same,"Total count Aerobic CFU/g bacteria, n1","[1]; sprouted flax and chia, 40 L/tonne, replicate n1","n1 = 550,000 CFU/g"
same,"Total count Aerobic CFU/g bacteria, n2","[1]; sprouted flax and chia, 40 L/tonne, replicate n2","n2 = 650,000 CFU/g"
same,bactericidal effect (conclusion),"[1]; vanilla, 40 L per 1 tonne",not a strong bactericidal agent
same,"Total count Aerobic CFU/g bacteria, Av","[1]; vanilla, 40 L/tonne, average",Av = 1 million
same,"Total count Aerobic CFU/g bacteria, n1","[1]; vanilla, 40 L/tonne, replicate n1",n1 = 1 million
same,"Total count Aerobic CFU/g bacteria, n2","[1]; vanilla, 40 L/tonne, replicate n2",n2 = 1 million
same,bactericidal effect (conclusion),[1]; [2],not a strong bactericidal agent
same,"Total count Aerobic - CFU/g bacteria, Av","[1]; whole dried pea, 40 L/tonne, average","Av = 900,000 CFU/g"
same,"Total count Aerobic - CFU/g bacteria, n1","[1]; whole dried pea, 40 L/tonne, replicate n1","n1 = 800,000 CFU/g"
same,"Total count Aerobic - CFU/g bacteria, n2","[1]; whole dried pea, 40 L/tonne, replicate n2",n2 = 1 million
same,"Total count Aerobic CFU/g bacteria, Av","[1]; whole split pea, 40 L/tonne, average","Av = 700,000 CFU/g"
same,"Total count Aerobic CFU/g bacteria, n1","[1]; whole split pea, 40 L/tonne, replicate n1","n1 = 700,000 CFU/g"
same,"Total count Aerobic CFU/g bacteria, n2","[1]; whole split pea, 40 L/tonne, replicate n2","n2 = 700,000 CFU/g"
same,"Y&M, Av",yeast and mold (Y&M); black pepper,"Av = 1,000 Y&M CFU/g"
same,"Y&M, Av",yeast and mold (Y&M); chia seeds,"Av = 10,000 Y&M CFU/g"
same,"Y&M, n1",yeast and mold (Y&M); chia seeds,"n1 = 10,000/n2 = 10,000 CFU/g"
same,"Y&M, n2",yeast and mold (Y&M); chia seeds,"n1 = 10,000/n2 = 10,000 CFU/g"
same,"Y&M, Av",yeast and mold (Y&M); flax seeds,"Av = 1,000 Y&M CFU/g"
same,"Y&M, n1",yeast and mold (Y&M); flax seeds,"n1 = 1,000/n2 = 1,000 CFU/g"
same,"Y&M, n2",yeast and mold (Y&M); flax seeds,"n1 = 1,000/n2 = 1,000 CFU/g"
same,"Y&M, Av",yeast and mold (Y&M); hemp,"Av = 1,000 Y&M CFU/g"
same,"Y&M, n1",yeast and mold (Y&M); hemp,n1 = 1000/n2 = 1000 CFU/g
same,"Y&M, n2",yeast and mold (Y&M); hemp,n1 = 1000/n2 = 1000 CFU/g
same,"Y&M, Av",yeast and mold (Y&M); pea fiber,Y&M not detected
same,"Y&M, n1",yeast and mold (Y&M); pea fiber,"n1, n2 not detected"
same,"Y&M, n2",yeast and mold (Y&M); pea fiber,"n1, n2 not detected"
same,"Y&M, Av",yeast and mold (Y&M); sprouted flax and chia,"Av = 1,000 Y&M CFU/g"
same,"Y&M, n1",yeast and mold (Y&M); sprouted flax and chia,"n1 = 1,000/n2 = 1,000 CFU/g"
same,"Y&M, n2",yeast and mold (Y&M); sprouted flax and chia,"n1 = 1,000/n2 = 1,000 CFU/g"
same,"Y&M, Av",yeast and mold (Y&M); vanilla,"Av = 1,000 Y&M CFU/g"
same,"Y&M, n1",yeast and mold (Y&M); vanilla,n1 = 1000/n2 = 1000 CFU/g
same,"Y&M, n2",yeast and mold (Y&M); vanilla,n1 = 1000/n2 = 1000 CFU/g
same,"Y&M, Av",yeast and mold (Y&M); whole dried pea,Y&M not detected
same,"Y&M, n1",yeast and mold (Y&M); whole dried pea,"n1, n2 not detected"
same,"Y&M, n2",yeast and mold (Y&M); whole dried pea,"n1, n2 not detected"
same,"Y&M, Av",yeast and mold (Y&M); whole split pea,Y&M not detected
same,"Y&M, n1",yeast and mold (Y&M); whole split pea,"n1, n2 not detected"
same,"Y&M, n2",yeast and mold (Y&M); whole split pea,"n1, n2 not detected"
CC(O)CO (centres unmarked) [propylene glycol],effective amount (concentration) required to suppress mucilage release,chia and flax seeds,about 13 % by volume
